Measured values: US11083725B2 (priority 2014, dated 2021)

System: NHBE cells
Experiment: Biolog metabolic array: substrate use by NHBE cells with or without CA09 infection
Assay type: cell-based, human
Conditions: for Substrate use, 590 nm absorbance normalized to zero hour, 0 hr: Biolog PMM2, 0 hr; for Substrate use, 590 nm absorbance normalized to zero hour, 1 hr: Biolog PMM2, 1 hr; for Substrate use, 590 nm absorbance normalized to zero hour, 5 hr: Biolog PMM2, 5 hr; for Substrate use, 590 nm absorbance normalized to zero hour, 7 hr: Biolog PMM2, 7 hr
[1] = Control (uninfected) NHBE cells
[2] = Virus (CA09-infected, MOI 1) NHBE cells
[3] = Virus: CA09-infected NHBE cells, MOI 1, Biolog PMM2
[4] = Virus (CA09-infected NHBE cells, MOI 1)
[5] = Virus (CA09, MOI 1) infected NHBE cells

CC(O)CO (centres unmarked) [1,2-Propanediol]
590 nm absorbance normalized to zero hour (substrate use), 0 hr [1]: 1.00 | 590 nm absorbance normalized to zero hour (substrate use), 1 hr [1]: 1.28 | 590 nm absorbance normalized to zero hour (substrate use), 2 hr [1]: 1.41 | 590 nm absorbance normalized to zero hour (substrate use), 3 hr [1]: 1.17 | 590 nm absorbance normalized to zero hour (substrate use), 4 hr [1]: 1.19 | 590 nm absorbance normalized to zero hour (substrate use), 6 hr [1]: 0.68 | 590 nm absorbance normalized to zero hour (substrate use), 8 hr [1]: 1.12 | 590 nm absorbance normalized to zero hour (substrate use), 9 hr [1]: 1.22 | 590 nm absorbance normalized to zero hour (substrate use), 10 hr [1]: 1.15 | 590 nm absorbance normalized to zero hour (substrate use), 11 hr [1]: 1.18 | Substrate use, 590 nm absorbance normalized to zero hour, 0 hr [1]: 1.00 | Substrate use, 590 nm absorbance normalized to zero hour, 1 hr [1]: 1.28 | Substrate use, 590 nm absorbance normalized to zero hour, 5 hr [1]: 1.27 | Substrate use, 590 nm absorbance normalized to zero hour, 7 hr [1]: 1.17 | 590 nm absorbance normalized to zero hour (substrate use), 0 hr [2]: 1.00 | 590 nm absorbance normalized to zero hour (substrate use), 1 hr [2]: 1.95 | 590 nm absorbance normalized to zero hour (substrate use), 2 hr [2]: 2.44 | 590 nm absorbance normalized to zero hour (substrate use), 3 hr [2]: 2.83 | 590 nm absorbance normalized to zero hour (substrate use), 4 hr [2]: 2.94 | 590 nm absorbance normalized to zero hour (substrate use), 5 hr [2]: 3.29 | 590 nm absorbance normalized to zero hour (substrate use), 6 hr [2]: 3.55 | 590 nm absorbance normalized to zero hour (substrate use), 7 hr [2]: 3.75 | 590 nm absorbance normalized to zero hour (substrate use), 8 hr [2]: 3.87 | 590 nm absorbance normalized to zero hour (substrate use), 9 hr [2]: 4.24 | 590 nm absorbance normalized to zero hour (substrate use), 10 hr [2]: 4.34 | 590 nm absorbance normalized to zero hour (substrate use), 11 hr [2]: 4.75 | 590 nm absorbance normalized to zero hour (substrate use), 0 hr [3]: 1.00 | 590 nm absorbance normalized to zero hour (substrate use), 1 hr [3]: 1.95 | 590 nm absorbance normalized to zero hour (substrate use), 2 hr [3]: 2.44 | 590 nm absorbance normalized to zero hour (substrate use), 3 hr [3]: 2.83 | 590 nm absorbance normalized to zero hour (substrate use), 4 hr [3]: 2.94 | 590 nm absorbance normalized to zero hour (substrate use), 5 hr [3]: 3.29 | 590 nm absorbance normalized to zero hour (substrate use), 6 hr [3]: 3.55 | 590 nm absorbance normalized to zero hour (substrate use), 7 hr [3]: 3.75 | 590 nm absorbance normalized to zero hour (substrate use), 8 hr [3]: 3.87 | 590 nm absorbance normalized to zero hour (substrate use), 9 hr [3]: 4.24 | 590 nm absorbance normalized to zero hour (substrate use), 10 hr [3]: 4.34 | 590 nm absorbance normalized to zero hour (substrate use), 11 hr [3]: 4.75

O=C(O)C[C@@H](O)C(=O)O [D-Malic Acid]
590 nm absorbance normalized to zero hour (substrate use), 0 hr [1]: 1.00 | 590 nm absorbance normalized to zero hour (substrate use), 1 hr [1]: 1.49 | 590 nm absorbance normalized to zero hour (substrate use), 2 hr [1]: 2.03 | 590 nm absorbance normalized to zero hour (substrate use), 3 hr [1]: 2.06 | 590 nm absorbance normalized to zero hour (substrate use), 4 hr [1]: 2.25 | 590 nm absorbance normalized to zero hour (substrate use), 6 hr [1]: 2.19 | 590 nm absorbance normalized to zero hour (substrate use), 8 hr [1]: 3.00 | 590 nm absorbance normalized to zero hour (substrate use), 9 hr [1]: 3.06 | 590 nm absorbance normalized to zero hour (substrate use), 10 hr [1]: 3.20 | 590 nm absorbance normalized to zero hour (substrate use), 11 hr [1]: 3.52 | Substrate use, 590 nm absorbance normalized to zero hour, 0 hr [1]: 1.00 | Substrate use, 590 nm absorbance normalized to zero hour, 1 hr [1]: 1.49 | Substrate use, 590 nm absorbance normalized to zero hour, 5 hr [1]: 2.63 | Substrate use, 590 nm absorbance normalized to zero hour, 7 hr [1]: 2.87 | 590 nm absorbance normalized to zero hour (substrate use), 0 hr [4]: 1.00 | 590 nm absorbance normalized to zero hour (substrate use), 1 hr [4]: 2.26 | 590 nm absorbance normalized to zero hour (substrate use), 2 hr [4]: 2.49 | 590 nm absorbance normalized to zero hour (substrate use), 3 hr [4]: 2.54 | 590 nm absorbance normalized to zero hour (substrate use), 4 hr [4]: 2.71 | 590 nm absorbance normalized to zero hour (substrate use), 5 hr [4]: 2.61 | 590 nm absorbance normalized to zero hour (substrate use), 6 hr [4]: 1.75 | 590 nm absorbance normalized to zero hour (substrate use), 7 hr [4]: 1.82 | 590 nm absorbance normalized to zero hour (substrate use), 8 hr [4]: 1.98 | 590 nm absorbance normalized to zero hour (substrate use), 9 hr [4]: 1.95 | 590 nm absorbance normalized to zero hour (substrate use), 10 hr [4]: 2.27 | 590 nm absorbance normalized to zero hour (substrate use), 11 hr [4]: 2.21 | 590 nm absorbance normalized to zero hour (substrate use), 0 hr [3]: 1.00 | 590 nm absorbance normalized to zero hour (substrate use), 1 hr [3]: 2.26 | 590 nm absorbance normalized to zero hour (substrate use), 2 hr [3]: 2.49 | 590 nm absorbance normalized to zero hour (substrate use), 3 hr [3]: 2.54 | 590 nm absorbance normalized to zero hour (substrate use), 4 hr [3]: 2.71 | 590 nm absorbance normalized to zero hour (substrate use), 5 hr [3]: 2.61 | 590 nm absorbance normalized to zero hour (substrate use), 6 hr [3]: 1.75 | 590 nm absorbance normalized to zero hour (substrate use), 7 hr [3]: 1.82 | 590 nm absorbance normalized to zero hour (substrate use), 8 hr [3]: 1.98 | 590 nm absorbance normalized to zero hour (substrate use), 9 hr [3]: 1.95 | 590 nm absorbance normalized to zero hour (substrate use), 10 hr [3]: 2.27 | 590 nm absorbance normalized to zero hour (substrate use), 11 hr [3]: 2.21

O=C[C@H](O)[C@@H](O)[C@H](O)[C@H](O)C(=O)O [D-Glucuronic Acid]
590 nm absorbance normalized to zero hour (substrate use), 1 hr [1]: 1.13 | 590 nm absorbance normalized to zero hour (substrate use), 2 hr [1]: 1.37 | 590 nm absorbance normalized to zero hour (substrate use), 3 hr [1]: 1.29 | 590 nm absorbance normalized to zero hour (substrate use), 4 hr [1]: 1.42 | 590 nm absorbance normalized to zero hour (substrate use), 6 hr [1]: 0.86 | 590 nm absorbance normalized to zero hour (substrate use), 8 hr [1]: 1.83 | 590 nm absorbance normalized to zero hour (substrate use), 9 hr [1]: 1.90 | 590 nm absorbance normalized to zero hour (substrate use), 10 hr [1]: 2.04 | 590 nm absorbance normalized to zero hour (substrate use), 11 hr [1]: 2.34 | Substrate use, 590 nm absorbance normalized to zero hour, 1 hr [1]: 1.13 | Substrate use, 590 nm absorbance normalized to zero hour, 5 hr [1]: 1.57 | Substrate use, 590 nm absorbance normalized to zero hour, 7 hr [1]: 1.71 | Substrate use, 590 nm absorbance normalized to zero hour, 1 hr [5]: 1.44 | Substrate use, 590 nm absorbance normalized to zero hour, 5 hr [5]: 2.79 | Substrate use, 590 nm absorbance normalized to zero hour, 7 hr [5]: 3.14 | 590 nm absorbance normalized to zero hour (substrate use), 1 hr [2]: 1.44 | 590 nm absorbance normalized to zero hour (substrate use), 2 hr [2]: 1.90 | 590 nm absorbance normalized to zero hour (substrate use), 3 hr [2]: 2.18 | 590 nm absorbance normalized to zero hour (substrate use), 4 hr [2]: 2.37 | 590 nm absorbance normalized to zero hour (substrate use), 6 hr [2]: 2.96 | 590 nm absorbance normalized to zero hour (substrate use), 8 hr [2]: 3.24 | 590 nm absorbance normalized to zero hour (substrate use), 9 hr [2]: 3.62 | 590 nm absorbance normalized to zero hour (substrate use), 10 hr [2]: 3.66 | 590 nm absorbance normalized to zero hour (substrate use), 11 hr [2]: 3.99

O=C(CO)[C@@H](O)[C@@H](O)[C@H](O)CO [Tagatose]
590 nm absorbance normalized to zero hour (substrate use), 11 hr [2]: 0.48
